Structures are written as SMILES. Residues, ends and D or L forms follow the SMILES beside them.

These results are taken from patent US20100210567A1, “USE OF A TUFTSIN AS A THERAPEUTIC AGENT” (priority 2007, published 2010).

One data set deals with Pseudomonas aeruginosa. It is filed as cell-based. Particulars: 5 micrograms per ml.
A further data set deals with Streptococcus pneumoniae. Type of data set: cell-based. The conditions noted are these: 5 micrograms per ml.
A short description of data set [1]: in vitro. Type of data set: cell-based. Particulars: human, MRC-5 cells.
The next data set concerns MRSA. The conditions noted are these: 5 micrograms per ml.
A short description of data set [2]: in vitro. Particulars: human, CEM-SS cells.
Data set [3] in a line: in vitro. The conditions noted are these: human.
Protocol: HepG2-2.2.15 is a stable cell line containing the hepatitis B virus (HBV) ayw strain genome (ATCC Cat. No. CRL-11997). […] After 16-24 hours the confluent monolayer of HepG2-2.2.15 cells was washed and the medium was replaced with complete medium containing test peptide—10 micrograms per ml—in duplicate. […] Three days later the culture medium was replaced with fresh medium containing the peptide. Six days following the initial administration of the peptide, the cell culture supernatants was collected, treated with pronase and DNAse and then used in a real-time quantitative TaqMan PCR assay. The PCR-amplified HBV DNA was detected in real-time by monitoring increases in fluorescence signals that result from the exonucleolytic degradation of a quenched fluorescence probe molecule that hybridizes to the amplified HBV DNA. For each PCR amplification, a standard curve was simultaneously generated using dilutions of purified HBV DNA. Antiviral activity was calculated from the reduction in HBV DNA levels (% virus control). A novel dye uptake assay was then employed to measure cell viability, which is used to calculate toxicity (% cell control).

As for `C[C@@H](O)[C@H](N)C(=O)N[C@@H](CCCCN)C(=O)N1CCC[C@H]1C(=O)N[C@@H](CCCNC(=N)N)C(=O)O` [Tuftsin, Thr-Lys-Pro-Arg-OH] (H-TKPR-OH), the “% inhibition” value in the data set with Pseudomonas aeruginosa, in the data set on Streptococcus pneumoniae and in the data set on MRSA was 0.0% throughout. In addition, the viability at 144 h in the data set “in vitro [1]” came to 100%. The viability at 10 micrograms per ml in the data set “in vitro [2]” was found to be 100%. Besides, the viability at 144 h, 10 micrograms per ml in the data set “in vitro [3]” turned out to be 100%.

The % inhibition is the drop in the measured response relative to a control, in per cent. A high value points to a response far below the control. As usually defined, the viability is a read-out of living cells in per cent, often relative to untreated cells.
